The target of assay [1] is T1, S1P1 (Homo sapiens, UniProt P21453).
T1 construct: expressed in transfected cells; host or cells: CHO cells (membranes)
The assay is described as follows: Receptor binding assay, [33P]sphingosine 1-phosphate, membranes, WGA SPA beads. The conditions noted are these: membranes from CHO cells expressing S1P1; 25 pM [33P]S1P; 60 min RT. On the procedure: (§1) Receptor binding assay: Membranes were prepared from CHO cells expressing S1P1 or S1P3 for use in ligand and […] binding studies. Cells were suspended in 50 mM TRIS, pH 7.4, 2 mM EDTA, 250 mM Sucrose (buffer A) and 1× Complete protease inhibitor cocktail (Roche), and disrupted at 4° C. by N2 decompression using a cell disruption bomb (Parr Instrument). Following centrifugation at 1000 RPM for 10 min at 4° C., the supernatant was suspended in buffer A and centrifuged again at 19000 RPM for 60 min at 4° C. The pellet was then suspended in 10 mM HEPES, pH 7.4, 1 mM EDTA, 250 mM Sucrose (Buffer B), and 1× Complete EDTA-free protease inhibitor cocktail and homogenized using a potter. Membranes were flash frozen in liquid N2 and stored at −80° C. [33P]sphingosine 1-phosphate (3000 Ci/mmol; American Radiolabeled Chemicals, Inc.) was added to test compounds in DMSO. Membranes and WGA SPA beads (GE Healthcare) were added to give a final volume of 100 μl in 96-well plates with assay concentrations of 25 pM or 10 pM [33P]sphingosine 1-phosphate (respectively for S1P1 or S1P3), 50 mM HEPES, pH 7.5, 5 mM MgCl2, 100 mM NaCl, 0.4% fatty acid-free BSA, 1-5 μg/well of proteins and 100 μg/well of WGA SPA beads. Binding was performed for 60 min at RT on a shaker and bound radioactivity was measured on a PerkinElmer 1450 MicroBeta counter. Specific binding was calculated by subtracting remaining radioactivity in the presence of 1000-fold excess of unlabeled S1P. Binding data were analyzed using the GraphPad Prism program.

Assay [2] addresses T1, S1P1. In words: 35S-GTPγS binding, S1P1 membranes. As to conditions: membranes from CHO cells expressing S1P1; 60 min 30° C. Type of assay: biochemical. In short, it runs like this: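 CHO-cell membranes expressing S1P1 or S1P3 (1-10 μg) incubated with compounds in 20 mM HEPES pH 7.4, 10 mM MgCl2, 140 mM NaCl, saponin, 0.2% BSA, 1.7 μM GDP and [35S]-GTPγS (20 μl of 1.5 nM added), 60 min at 30° C. Bound radioactivity expressed as % of S1P activation.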
(Binding of GTPγS marks nucleotide exchange on a G protein.)

Assay [3] has as its target T2, S1P3 (Homo sapiens, UniProt Q99500).
T2 construct: expressed in transfected cells; host or cells: CHO cells (membranes)
In words: 35S-GTPγS binding, S1P3 membranes. Type of assay: biochemical. The conditions noted are these: membranes from CHO cells expressing S1P3; 60 min 30° C. The procedure:
as §1
Measurements of ^35S-GTPγS Binding: Membranes (1 to 10 μg protein) prepared as described above, were incubated in 96-well Scintiplates (PerkinElmer) with test compounds diluted in DMSO, in 180 μl of 20 mM HEPES, pH 7.4, 10 mM MgCl2, 2 μg/well Saponin, 0.2% fatty acid free BSA (Assay buffer), 140 mM NaCl and 1.7 μM GDP. The assay was initiated with the addition of 20 μl of 1.5 nM [35S]-GTPγS (1100 Ci/mmol; GE Healthcare) in assay buffer. After 60 min incubation at 30° C. on a shaker, plates were centrifuged for 10 min at 2000 RPM. Supernatant was discarded and membrane bound radioactivity was measured on a PerkinElmer 1450 MicroBeta counter. Triplicate samples were averaged and expressed as % response relative to S1P activation in absence of compound (n=2).

Structures can show the parent of a compound that is named as a salt.

The Ki is the dissociation constant of the complex between target and ligand, obtained from inhibition or displacement. Higher therefore signals weaker binding. What is called EC50 is the concentration that produces a half-maximal response. Low readings indicate a more potent agent, high ones a less potent agent.

T2 sequence (Q99500 whole entry, species assumed): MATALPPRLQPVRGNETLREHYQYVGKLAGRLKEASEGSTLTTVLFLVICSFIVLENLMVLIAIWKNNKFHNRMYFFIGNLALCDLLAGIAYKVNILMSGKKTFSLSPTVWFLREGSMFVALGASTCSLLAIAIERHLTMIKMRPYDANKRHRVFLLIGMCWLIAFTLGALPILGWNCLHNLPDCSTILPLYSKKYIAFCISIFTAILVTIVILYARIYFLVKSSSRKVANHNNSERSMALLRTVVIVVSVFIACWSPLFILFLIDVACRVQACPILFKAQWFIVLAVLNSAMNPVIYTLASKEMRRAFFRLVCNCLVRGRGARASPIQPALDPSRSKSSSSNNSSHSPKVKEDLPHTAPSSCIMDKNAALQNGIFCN
T1 sequence (P21453 whole entry, species assumed): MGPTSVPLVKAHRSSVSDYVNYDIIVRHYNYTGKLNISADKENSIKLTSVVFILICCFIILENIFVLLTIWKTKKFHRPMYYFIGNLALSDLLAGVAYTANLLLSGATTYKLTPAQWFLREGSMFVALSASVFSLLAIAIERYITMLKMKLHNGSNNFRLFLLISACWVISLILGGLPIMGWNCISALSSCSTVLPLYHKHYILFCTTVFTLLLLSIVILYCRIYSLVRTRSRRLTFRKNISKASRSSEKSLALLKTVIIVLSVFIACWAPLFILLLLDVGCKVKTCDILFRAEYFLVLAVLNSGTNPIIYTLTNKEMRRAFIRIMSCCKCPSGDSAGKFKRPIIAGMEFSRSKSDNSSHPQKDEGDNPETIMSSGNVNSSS

In assay [1], `O=C(O)c1ccc(-c2noc(-c3ccc(-c4ccccc4Cl)cc3)n2)cc1F` [Example 2, 4-[5-(2′-chlorobiphenyl-4-yl)-1,2,4-oxadiazol-3-yl]-2-fluorobenzoic acid] displayed a Ki of 1500 nM. Also, the figures for the EC50 in assay [2] and in assay [3] were 4720 nM and above 30000 nM, respectively.
The corresponding values for `Cc1ccccc1-c1ccc(-c2nc(-c3ccc(C(=O)O)c(F)c3)no2)cc1C` [Example 4, 4-[5-(2,2′-dimethylbiphenyl-4-yl)-1,2,4-oxadiazol-3-yl]-2-fluorobenzoic acid] are 126 nM, 317 nM and above 30000 nM.
The corresponding values for `Cc1cc(-c2nc(-c3ccc(C(=O)O)c(F)c3)no2)ccc1-c1cscc1C` [Example 9, 2-fluoro-4-{5-[3-methyl-4-(4-methyl-3-thienyl)phenyl}-1,2,4-oxadiazol-3-yl]benzoic acid] are 40 nM, 136 nM and above 30000 nM.
On the same counts, the results for `Cc1ccccc1-c1ccc(-c2nc(-c3ccc(C(=O)O)cc3F)no2)cc1C` [Example 10, 4-[5-(2,2′-dimethylbiphenyl-4-yl)-1,2,4-oxadiazol-3-yl]-3-fluorobenzoic acid] are 330 nM, 3510 nM and above 30000 nM.
For `COc1cc(-c2nc(-c3ccc(C(=O)O)c(F)c3)no2)ccc1-c1cscc1C` [Example 12, 2-fluoro-4-{5-[3-methoxy-4-(4-methyl-3-thienyl)phenyl]-1,2,4-oxadiazol-3-yl}benzoic acid], the Ki in assay [1] amounted to 60 nM. Moreover, the EC50 in assay [2] is 148 nM; in assay [3] it was above 30000 nM.
The corresponding values for `COc1cc(-c2nc(-c3ccc(C(=O)O)c(F)c3)no2)ccc1-c1ccccc1C` [Example 13, 2-fluoro-4-[5-(2-methoxy-2′-methylbiphenyl-4-yl)-1,2,4-oxadiazol-3-yl]benzoic acid] are 130 nM, 341 nM and above 30000 nM.
The corresponding values for `CC1CCCCN1c1ccc(-c2nc(-c3ccc(C(=O)O)c(F)c3)no2)cc1C(F)(F)F` (stereo not shown) [Example 19, 2-fluoro-4-{5-[4-(2-methylpiperidin-1-yl)-3-(trifluoromethyl)phenyl]-1,2,4-oxadiazol-3-yl}benzoic acid] are 110 nM, 347 nM and above 30000 nM.
On the same counts, the results for `Cc1ccccc1-c1ccc(-c2nc(-c3ccc(C(=O)O)c(F)c3)no2)cc1C(F)(F)F` [Example 22, 2-fluoro-4-{5-[2′-methyl-2-(trifluoromethyl)biphenyl-4-yl]-1,2,4-oxadiazol-3-yl}benzoic acid] are 524 nM, 417 nM and above 20000 nM.
`Cc1cscc1-c1ccc(-c2nc(-c3ccc(C(=O)O)c(F)c3)no2)cc1C(F)(F)F` [Example 23, 2-fluoro-4-{5-[4-(4-methyl-3-thienyl)-3-(trifluoromethyl)phenyl]-1,2,4-oxadiazol-3-yl}benzoic acid] yielded a Ki in assay [1] of 90 nM. The EC50 turned out to be 197 nM in assay [2] and 14900 nM in assay [3].
On the same counts, the results for `Cc1cc(-c2nc(-c3ccc(C(=O)O)cc3F)no2)ccc1-c1cscc1C` [Example 26, 3-fluoro-4-{5-[3-methyl-4-(4-methyl-3-thienyl)phenyl]-1,2,4-oxadiazol-3-yl}benzoic acid] are 172 nM, 360 nM and above 20000 nM.
The corresponding values for `CC1CCCCN1c1ccc(-c2nc(-c3ccc(C(=O)O)cc3F)no2)cc1C(F)(F)F` (stereo not shown) [Example 27, 3-fluoro-4-{5-[4-(2-methylpiperidin-1-yl)-3-(trifluoromethyl)phenyl]-1,2,4-oxadiazol-3-yl}benzoic acid] are 505 nM, 1100 nM and above 20000 nM.
`COc1ncccc1-c1ccc(-c2nc(-c3ccc(C(=O)O)c(F)c3)no2)cc1C` [Example 28, 2-fluoro-4-{5-[4-(2-methoxypyridin-3-yl)-3-methylphenyl]-1,2,4-oxadiazol-3-yl}benzoic acid] yielded a Ki in assay [1] of 190 nM. In addition, the figures for the EC50 in assay [2] and in assay [3] were 834 nM and above 30000 nM, respectively.
On the same counts, the results for `CC1CCCCN1c1ccc(-c2nc(-c3ccc(C(=O)O)c(F)c3)no2)cc1C#N` (stereo not shown) [Example 29, 4-{5-[3-cyano-4-(2-methylpiperidin-1-yl)phenyl]-1,2,4-oxadiazol-3-yl}-2-fluorobenzoic acid] are 70 nM, 430 nM and above 30000 nM.
The corresponding values for `CC1CCCCN1c1ccc(-c2nc(-c3ccc(C(=O)O)c(F)c3)no2)cc1NS(C)(=O)=O` (stereo not shown) [Example 30, 2-fluoro-4-(5-{4-(2-methylpiperidin-1-yl)-3-[(methylsulfonyl)amino]phenyl}-1,2,4-oxadiazol-3-yl)benzoic acid] are 40 nM, 50 nM and 5930 nM.
The corresponding values for `CC1CCCCN1c1ccc(-c2nc(-c3ccc(OCC(=O)O)c(F)c3)no2)cc1C(F)(F)F` (stereo not shown) [Example 47, (2-fluoro-4-{5-[4-(2-methylpiperidin-1-yl)-3-(trifluoromethyl)phenyl]-1,2,4-oxadiazol-3-yl}phenoxy)acetic acid] are 4 nM, 40 nM and 1000 nM.
In the case of `Cc1ccccc1-c1ccc(-c2nc(-c3ccc(OCC(=O)O)c(F)c3)no2)cc1C` [Example 48, {4-[5-(2,2′-dimethylbiphenyl-4-yl)-1,2,4-oxadiazol-3-yl]-2-fluorophenoxy}acetic acid], the Ki in assay [1] worked out at 40 nM. Moreover, the EC50 came to 129 nM in assay [2] and 17000 nM in assay [3].
On the same counts, the results for `Cc1ccccc1-c1ccc(-c2nc(-c3ccc(NCC(=O)O)c(F)c3)no2)cc1C` [Example 56, N-{4-[5-(2,2′-dimethylbiphenyl-4-yl)-1,2,4-oxadiazol-3-yl]-2-fluorophenyl}glycine] are 10 nM, 70 nM and 14500 nM.
The corresponding values for `Cc1ccccc1-c1ccc(-c2nc(-c3ccc(C(=O)O)c(F)c3)no2)cc1COC(C)C` [Example 59, 2-fluoro-4-{5-[2-(isopropoxymethyl)-2′-methylbiphenyl-4-yl]-1,2,4-oxadiazol-3-yl}benzoic acid] are 182 nM, 286 nM and 767 nM.
Regarding `Cc1ccccc1-c1ccc(-c2nc(-c3ccc(C(=O)O)c(F)c3)no2)cc1CN(C)C` [Example 62, 4-(5-{2-[(dimethylamino)methyl]-2′-methylbiphenyl-4-yl}-1,2,4-oxadiazol-3-yl)-2-fluorobenzoic acid, Hydrochloride salt], in assay [1], the affinity corresponds to a Ki of 24 nM. In addition, the EC50 was determined as 92 nM in assay [2] and 699 nM in assay [3].
The corresponding values for `CCOCc1cc(-c2nc(-c3ccc(C(=O)O)c(F)c3)no2)ccc1-c1ccccc1C` [Example 63, 4-{5-[2-(ethoxymethyl)-2′-methylbiphenyl-4-yl]-1,2,4-oxadiazol-3-yl}-2-fluorobenzoic acid] are 30 nM, 60 nM and 615 nM.
For `COCc1cc(-c2nc(-c3ccc(F)c(CN(C)CC(=O)O)c3)no2)ccc1N1CCCCC1C` (stereo not shown) [Example 152, N-(2-fluoro-5-{5-[3-(methoxymethyl)-4-(2-methylpiperidin-1-yl)phenyl]-1,2,4-oxadiazol-3-yl}benzyl)-N-methylglycine, Dihydrochloride salt], the EC50 in assay [2] turned out to be 0.6 nM; in assay [3], 223 nM.
The corresponding values for `COCc1cc(-c2nc(-c3ccc(OCCCC(=O)O)c(F)c3)no2)ccc1-c1ccccc1C` [Example 168, 4-(2-fluoro-4-{5-[2-(methoxymethyl)-2′-methylbiphenyl-4-yl]-1,2,4-oxadiazol-3-yl}phenoxy)butanoic acid] are 7.8 nM and 219 nM.

Values taken from patent US8202865B2, “Oxadiazole derivatives” (Merck Serono SA, priority 2007, dated 2012).
